{"source": "patent US8124840B2", "about": "“Regulating metabolism by modifying the level of trehalose-6-phosphate” (Syngenta Mogen B.V., priority 1996, dated 2012)", "key": {"potato microtubers": {"test_system": "potato microtubers", "assay": "Trehalose accumulation in potato microtubers induced on medium with Validamycin A", "format": "in vivo, Solanum tuberosum cv. Kardal", "details": "for Trehalose (% fresh weight): +Validamycin A 10^−3 M", "protocol": "Stem segments of in vitro potato plants harbouring an auxiliary meristem were transferred to micro-tuber inducing medium. Micro-tuber inducing medium contains 1 X MS-salts supplemented with R3 vitamins, 0.5 g/l MES (final pH=5.8, adjusted with KOH) and solidified with 8 g/l Daichin agar, 60 g/l sucrose and 2.5 mg/l kinetin. After 3 to 5 weeks of growth in the dark at 24° C., micro-tubers were formed.\n(§1) Validamycin A was isolated from Solacol, a commercial agricultural formulation (Takeda Chem. Indust., Tokyo) as described by Kendall et al. (1990) Phytochemistry 29, 2525. The procedure involves ion-exchange chromatography (QAE-Sephadex A-25 (Pharmacia), bed vol. 10 ml, equilibration buffer 0.2 mM Na-Pi pH 7) from a 3% agricultural formulation of Solacol. Loading 1 ml of Solacol on the column and eluting with water in 7 fractions, practically all Validamycin was recovered in fraction 4. Based on a 100% recovery, using this procedure, the concentration of Validamycin A was adjusted to 1.10^−3 M in MS-medium, for use in trehalose accumulation tests. Alternatively, Validamycin A and B may be purified directly from Streptomyces hygroscopicus var. limoneus, as described by Iwasa et al. (1971) J. Antibiot. 24, 119, the content of which is incorporated herein by reference.\nCarbohydrates were determined quantitatively by anion exchange chromatography with pulsed electrochemical detection. Extracts were prepared by extracting homogenized frozen material with 80% EtOH. After extraction for 15 minutes at room temperature, the soluble fraction is evaporated and dissolved in distilled water. Samples (25 μl) were analyzed on a Dionex DX-300 liquid chromatograph equipped with a 4×250 mm Dionex 35391 carbopac PA-1 column and a 4×50 mm Dionex 43096 carbopac PA-1 precolumn. Elution was with 100 mM NaOH at 1 ml/min followed by a NaAc gradient. Sugars were detected with a pulsed electrochemical detector (Dionex, PED). Commercially available carbohydrates (Sigma) were used as a standard.\nPotato Solanum tuberosum cv. […] The presence of small amounts of trehalose in wild-type plants indicates the presence of a functional trehalose biosynthetic pathway.\nEvidence for the presence of a trehalose biosynthesis pathway in tobacco was obtained by culturing wild-type plants in the presence of 10^−3M of the trehalase inhibitor Validamycin A. The treated plants accumulated very small amounts of trehalose, up to 0.0021% (fw). Trehalose accumulation was never detected in any control plants cultured without inhibitor. Similar data were obtained with wild-type microtubers cultured in the presence of Validamycin A. Ten out of seventeen lines accumulated on average 0.001% trehalose (fw)/(Table 4)."}, "wild-type tobacco plants": {"test_system": "wild-type tobacco plants", "assay": "Trehalose accumulation in wild-type tobacco plants cultured with Validamycin A", "format": "in vivo", "details": "wild-type tobacco plants cultured with 10^−3M Validamycin A", "protocol": "as §1, with “1.10^-3” for “1.10^−3”, “reference. Carbohydrates were determined quantitatively by anion exchange chromatography with pulsed electrochemical detection. […] Samples (25 μl) were analyzed on a Dionex DX-300 liquid chromatograph equipped with a 4×250 mm Dionex 35391 carbopac PA-1 column and a 4×50 mm Dionex 43096 carbopac PA-1 precolumn. […] Sugars were detected with a pulsed electrochemical detector (Dionex, PED). […] Trehalose accumulation was never detected in any control plants cultured without inhibitor. […]” for “reference.”"}, "[1]": {"test_system": "trehalases from various sources", "details": "cited from earlier work"}, "α- or β-glycohydrolase": {"test_system": "α- or β-glycohydrolase", "details": "except for trehalase; cited from earlier work"}, "hexokinase": {"test_system": "hexokinase", "assay": "Hexokinase assay on mouse hybridoma cell extract with/without trehalose-6-phosphate", "format": "biochemical", "details": "for V2 (ODU/min): hexokinase rate with T6P", "protocol": "Hexokinase activity was measured in an assay containing 0.1 M Hepes-KOH pH 7.0, 4 mM MgCl2, 5 mM ATP, 0.2 mM NADP^+, 10 U/ml Creatine Phosphate Kinase (dissolved in 50% glycerol, 0.1% BSA, 50 mM Hepes pH 7.0), 3.5 mM Creatine Phosphate, 7 U/ml Glucose-6-Phosphate Dehydrogenase and 2 mM Glucose by measuring the increase in OD at 340 nm at 25° C.\nWhen 2 mM Fructose was used instead of glucose as substrate for the hexokinase reaction, 3.8 U/ml Phosphoglucose Isomerase was included. Alternatively, a hexokinase assay as described by Gancedo et al. (1977) J. Biol. Chem. 252, 4443 was used.\nA hexokinase assay was performed using glucose or fructose as substrate under conditions as described by Gancedo et al. (see above). Mouse hybridoma cells were subjected to osmotic shock by exposing a cell pellet to 20% sucrose, followed by distilled water. This crude protein extract was used in the hexokinase assay (50 μl) extract corresponding to ca. 200 μg protein)."}, "[2]": {"details": "substrate Fructose 20 mM, T6P 0.23"}, "[3]": {"details": "substrate Fructose 20 mM, T6P 0.43"}, "[4]": {"details": "substrate Fructose 20 mM, T6P 0.83"}, "[5]": {"details": "substrate Fructose 20 mM, T6P 1.67"}, "[6]": {"details": "substrate Glucose 2 mM, T6P 0.83"}, "[7]": {"details": "substrate Glucose 20 mM, T6P 0.83"}, "[8]": {"details": "substrate Glucose 100 mM, T6P 0.83"}}, "data": [{"smiles": "OCC1=C[C@@H](N[C@H]2C[C@H](CO)[C@@H](O[C@H]3O[C@@H](CO)[C@H](O)[C@@H](O)[C@@H]3O)[C@H](O)[C@H]2O)[C@H](O)[C@@H](O)[C@@H]1O", "note": "[Validamycin A]", "values": [{"measurement": "Trehalose (% fresh weight)", "setting": "potato microtubers; microtubers of pMOG845 line 845-2", "value": 0.016, "unit": "% fresh weight"}, {"measurement": "Trehalose (% fresh weight)", "setting": "potato microtubers; microtubers of pMOG845 line 845-8", "value": 0.051, "unit": "% fresh weight"}, {"measurement": "Trehalose (% fresh weight)", "setting": "potato microtubers; microtubers of pMOG845 line 845-11", "value": 0.015, "unit": "% fresh weight"}, {"measurement": "Trehalose (% fresh weight)", "setting": "potato microtubers; microtubers of pMOG845 line 845-13", "value": 0.011, "unit": "% fresh weight"}, {"measurement": "Trehalose (% fresh weight)", "setting": "potato microtubers; microtubers of pMOG845 line 845-22", "value": 0.112, "unit": "% fresh weight"}, {"measurement": "Trehalose (% fresh weight)", "setting": "potato microtubers; microtubers of pMOG845 line 845-25", "value": 0.002, "unit": "% fresh weight"}, {"measurement": "Trehalose (% fresh weight)", "setting": "potato microtubers; microtubers of pMOG845 line 845-28", "value": 0.109, "unit": "% fresh weight"}, {"measurement": "Trehalose (% fresh weight)", "setting": "potato microtubers; microtubers of wild type Kardal", "value": 0.001, "unit": "% fresh weight"}, {"measurement": "Trehalose level in microtubers versus medium without Validamycin A", "setting": "potato microtubers; transgenic (pMOG845) and wild-type microtubers, 10^−3 M Validamycin A", "value": "elevated levels of trehalose"}, {"measurement": "Trehalose accumulation, average", "setting": "potato microtubers; wild-type microtubers cultured with Validamycin A, ten out of seventeen lines", "value": "0.001 % trehalose (fw)"}, {"measurement": "Trehalose accumulation", "setting": "wild-type tobacco plants", "value": "up to 0.0021 % (fw)"}, {"measurement": "IC50", "setting": "[1]", "value": "0.1 to 1000", "unit": "nM"}, {"measurement": "Inhibition of α- or β-glycohydrolase activity", "setting": "α- or β-glycohydrolase", "value": "does not significantly inhibit"}]}, {"smiles": "O=P(O)(O)OC[C@H]1O[C@H](O[C@H]2O[C@H](CO)[C@@H](O)[C@H](O)[C@H]2O)[C@H](O)[C@@H](O)[C@@H]1O", "note": "[T-6-P, trehalose-6-phosphate]", "values": [{"measurement": "Hexokinase activity in mouse cell extracts", "setting": "hexokinase; crude extract of mouse hybridoma cells", "value": "is inhibited"}, {"measurement": "V2 (ODU/min)", "setting": "hexokinase; [2]", "value": 0.0205, "unit": "ODU/min"}, {"measurement": "V2 (ODU/min)", "setting": "hexokinase; [3]", "value": 0.0197, "unit": "ODU/min"}, {"measurement": "V2 (ODU/min)", "setting": "hexokinase; [4]", "value": 0.0151, "unit": "ODU/min"}, {"measurement": "V2 (ODU/min)", "setting": "hexokinase; [5]", "value": 0.0133, "unit": "ODU/min"}, {"measurement": "V2 (ODU/min)", "setting": "hexokinase; [6]", "value": 0.0133, "unit": "ODU/min"}, {"measurement": "V2 (ODU/min)", "setting": "hexokinase; [7]", "value": 0.0141, "unit": "ODU/min"}, {"measurement": "V2 (ODU/min)", "setting": "hexokinase; [8]", "value": 0.0125, "unit": "ODU/min"}, {"measurement": "Efficiency of hexokinase inhibition, glucose versus fructose as substrate", "setting": "hexokinase; mouse cell extracts", "value": "No difference"}, {"measurement": "Inhibition (%)", "setting": "hexokinase; [2]", "value": 1, "unit": "%"}, {"measurement": "Inhibition (%)", "setting": "hexokinase; [3]", "value": 26, "unit": "%"}, {"measurement": "Inhibition (%)", "setting": "hexokinase; [4]", "value": 35, "unit": "%"}, {"measurement": "Inhibition (%)", "setting": "hexokinase; [5]", "value": 46, "unit": "%"}, {"measurement": "Inhibition (%)", "setting": "hexokinase; [6]", "value": 35, "unit": "%"}, {"measurement": "Inhibition (%)", "setting": "hexokinase; [7]", "value": 35, "unit": "%"}, {"measurement": "Inhibition (%)", "setting": "hexokinase; [8]", "value": 34, "unit": "%"}]}]}
